Target: T1, CYP2C8 (Homo sapiens, UniProt P10632)
T1 sequence (P10632 1-490): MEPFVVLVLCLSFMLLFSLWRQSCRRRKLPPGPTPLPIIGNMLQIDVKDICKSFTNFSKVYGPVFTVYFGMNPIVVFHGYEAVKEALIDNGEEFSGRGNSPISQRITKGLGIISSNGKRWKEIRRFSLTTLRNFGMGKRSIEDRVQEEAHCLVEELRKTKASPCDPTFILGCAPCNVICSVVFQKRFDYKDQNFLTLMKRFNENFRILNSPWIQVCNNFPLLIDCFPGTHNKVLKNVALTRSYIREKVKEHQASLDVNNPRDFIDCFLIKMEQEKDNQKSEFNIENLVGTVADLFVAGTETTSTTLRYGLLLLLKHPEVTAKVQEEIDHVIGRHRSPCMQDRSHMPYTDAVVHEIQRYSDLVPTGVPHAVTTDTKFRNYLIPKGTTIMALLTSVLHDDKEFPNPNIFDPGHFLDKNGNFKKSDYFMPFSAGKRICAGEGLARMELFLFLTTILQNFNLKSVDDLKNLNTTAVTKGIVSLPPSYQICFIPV
Assay: CYP2C8-catalyzed amodiaquine N-deethylation in human liver microsomes (IC50 and time-dependent inhibition)
Type: in vitro ADME
Set-up: from tissue; host or cells: ultrapooled human liver microsomes
Method: The inhibitory potential (IC50 values) of EAM-2201 on CYP1A2, CYP2A6, CYP2C8, CYP2C9, CYP2C19, CYP2D6 and CYP3A4 were evaluated using ultrapooled human liver microsomes and a cocktail of seven CYP substrates followed by LC-tandem mass spectrometry (LC-MS/MS) as previously described. Each incubation mixture was prepared in a total volume of 100 µL as follows: pooled human liver microsomes (5.2 pmol CYP), 1.0 mM NADPH, 10 mM magnesium chloride, 50 mM potassium phosphate buffer (pH 7.4), various concentrations of EAM-2201 in DMSO (final concentrations of 0.1–50 µM, 0.5% DMSO) and a cocktail of seven CYP probe substrates in 50% acetonitrile (0.5% acetonitrile), including 50 µM phenacetin, 2.5 µM coumarin, 2.0 µM amodiaquine, 10 µM diclofenac, 100 µM [S]-mephenytoin, 5 µM bufuralol and 2.5 µM midazolam in 50% acetonitrile. After a 3-min preincubation at 37 °C, the reactions were initiated by adding NADPH and incubation proceeded for 15 min at 37 °C in a shaking water bath. The reactions were stopped by adding 100 µL of ice-cold methanol containing internal standards (^13C2,^15N-acetaminophen for acetaminophen and N-desethylamodiaquine; d9-1′-hydroxybufuralol for 4′-hydroxydiclofenac, 7-hydroxycoumarin, 4′-hydroxymephenytoin, 1′-hydroxybufuralol and 1′-hydroxy-midazolam). The incubation mixtures were centrifuged at 13,000× g for 4 min at 4 °C and 50 µL of each supernatant was diluted in 50 µL of water. Aliquots (5 µL) of the diluted supernatants were analyzed using LC-MS/MS. All assays were performed in triplicate and the mean values were used in calculations. […] Each reaction was initiated by adding the seven-CYP probe substrate cocktail described above.
The time-dependent inhibitory effects of EAM-2201 on CYP2C8, CYP2C9, CYP2C19 and CYP3A4 activities in ultrapooled human liver microsomes were evaluated using time- and concentration-dependent inhibition assays. Ultrapooled human liver microsomes (26.0 pmol CYP) were pre-incubated with various concentrations of EAM-2201 in DMSO (0.5% DMSO) in 50 mM potassium phosphate buffer (pH 7.4) in the presence of NADPH for predetermined time periods: 5–15 min for CYP2C8 activity, 5–20 min for CYP2C9 activity and 15–40 min for CYP2C19 and CYP3A4 activities. […] Aliquots (5 µL) of the diluted supernatants were analyzed using LC-MS/MS.
The metabolites formed from CYP substrates were simultaneously quantified using our previously described LC-MS/MS method. […]

`CCc1ccc(C(=O)c2cn(CCCCCF)c3ccccc23)c2ccccc12` [EAM-2201, (4-ethyl-1-naphthalenyl)[1-(5-fluoropentyl)-1H-indol-3-yl]-methanone] was tested, and the IC50 was 3 µM, the “inactivation efficiency (kinact/Ki), CYP2C8” value (human liver microsomes) was 1953 M⁻¹ s⁻¹ and the kinact (human, ultrapooled human liver microsomes, pH 7.4, probe amodiaquine (2 µM), N-deethylation, read-out: kinact, time-dependent inhibition of CYP2C8 amodiaquine N-deethylase (converted)) was 0.00105 s⁻¹. The “inhibition of CYP2C8-catalyzed amodiaquine N-deethylation” value (up to 50 µM, without 30-min preincubation, human liver microsomes) was “negligibly inhibited”.
